Experimental data published in patent publication US12655116B2, “Substituted isophthalic acid diamides” (Bayer Aktiengesellschaft, priority 2020, dated 2026).

What was measured:
SETVI [1] = experiment: Pre-emergence herbicidal action against SETVI; type: in vivo, Setaria viridis; conditions: Setaria viridis, 504 h
In short: (§1)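 Sandy loam pots, seeds covered with soil, then surface-treated with WP or EC formulations at 600–800 l/ha water plus 0.2% wetting agent. Greenhouse, 3 weeks. Percent damage vs untreated controls.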

LOLRI = experiment: Post-emergence herbicidal action against LOLRI; type: in vivo, Lolium rigidum; conditions: Lolium rigidum, 504 h, dosage 20 g/ha
Protocol: Seeds of monocotyledonous and dicotyledonous weed and crop plants are laid out in sandy loam soil in wood-fiber pots, covered with soil and cultivated in a greenhouse under good growth conditions. 2 to 3 weeks after sowing, the test plants are treated at the one-leaf stage. The compounds of the invention, formulated in the form of wettable powders (WP) or as emulsion concentrates (EC), are then sprayed onto the green parts of the plants in the form of an aqueous suspension or emulsion at a water application rate equivalent to 600 to 800 l/ha, with addition of 0.2% wetting agent. After the test plants have been left to stand in the greenhouse under optimal growth conditions for about 3 weeks, the action of the preparations is assessed visually in comparison to untreated controls (herbicidal action in percent (%): 100% activity=the plants have died, 0% activity=like control plants). […] The tables below illustrate, in an illustrative manner, the post-emergence herbicidal action of the compounds of the invention, the herbicidal activity being stated in percent.

AVEFA [2] = experiment: Post-emergence herbicidal action against AVEFA; type: in vivo, Avena fatua; conditions: Avena fatua, 504 h, 20 g/ha, visual assessment about 3 weeks after treatment, 100% = plants have died, 0% = like control plants
In short: (§2)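 Visual % rating (0% = as untreated, 100% = dead) ~3 wk after spraying one-leaf-stage plants grown in sandy loam; WP/EC in water at 600–800 l/ha, 0.2% wetting agent.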

ECHCG [3] = experiment: Post-emergence herbicidal action against ECHCG; type: in vivo, Echinochloa crus-galli; conditions: Echinochloa crus-galli, 504 h, dosage 20 g/ha
In short: as §2

ABUTH [4] = experiment: Pre-emergence herbicidal action against ABUTH; type: in vivo, Abutilon theophrasti; conditions: Abutilon theophrasti, 504 h, 80 g/ha, scored visually after 3 weeks vs untreated controls (100% = plants have died, 0% = like control plants)
In short: as §1

ABUTH [5] = experiment: Post-emergence herbicidal action against ABUTH; type: in vivo, Abutilon theophrasti; conditions: Abutilon theophrasti, 504 h, dosage 20 g/ha, visual assessment about 3 weeks after treatment vs untreated controls
In short: as §2

AVEFA [6] = experiment: Pre-emergence herbicidal action against AVEFA; type: in vivo, Avena fatua; conditions: Avena fatua, 504 h; 80 g/ha, pre-emergence
In short: as §1

AMARE [7] = experiment: Post-emergence herbicidal action against AMARE; type: in vivo, Amaranthus retroflexus; conditions: Amaranthus retroflexus, 504 h, 20 g/ha, visual assessment about 3 weeks after treatment, 100% = plants have died, 0% = like control plants
In short: as §2

VIOTR [8] = experiment: Pre-emergence herbicidal action against VIOTR; type: in vivo, Viola tricolor; conditions: Viola tricolor, 504 h
In short: as §1

ECHCG [9] = experiment: Pre-emergence herbicidal action against ECHCG; type: in vivo, Echinochloa crus-galli; conditions: Echinochloa crus-galli, 504 h, 80 g/ha
In short: as §1

ALOMY [10] = experiment: Post-emergence herbicidal action against ALOMY; type: in vivo, Alopecurus myosuroides; conditions: Alopecurus myosuroides, 504 h, visual assessment about 3 weeks after treatment vs untreated controls
In short: as §2

VERPE = experiment: Pre-emergence herbicidal action against VERPE; type: in vivo, Veronica persica; conditions: Veronica persica, 504 h, dosage 80 g/ha
In short: as §1

VIOTR [11] = experiment: Post-emergence herbicidal action against VIOTR; type: in vivo, Viola tricolor; conditions: Viola tricolor, 504 h, 20 g/ha
In short: as §2

MATIN = experiment: Pre-emergence herbicidal action against MATIN; type: in vivo, Matricaria inodora; conditions: Tripleurospermum inodorum, 504 h, dosage 80 g/ha
In short: as §1

SETVI [12] = experiment: Post-emergence herbicidal action against SETVI; type: in vivo, Setaria viridis; conditions: Setaria viridis, 504 h, dosage 20 g/ha
In short: as §2

AMARE [13] = experiment: Pre-emergence herbicidal action against AMARE; type: in vivo, Amaranthus retroflexus; conditions: Amaranthus retroflexus, 504 h, scored visually after 3 weeks vs untreated controls, 100% = plants have died, 0% = like control plants
In short: as §1

ALOMY [14] = experiment: Pre-emergence herbicidal action against ALOMY; type: in vivo, Alopecurus myosuroides; conditions: Alopecurus myosuroides, 504 h, pre-emergence
In short: as §1

Cn1nnnc1NC(=O)c1ccc(Cl)c(C(=O)NC2CC2)c1Br [Example 1-351]
pest or weed control at 20 g/ha (SETVI [1]; dosage 20 g/ha): 100%
pest or weed control at 80 g/ha (SETVI [1]; dosage 80 g/ha): 100%
pest or weed control at 20 g/ha (LOLRI): 80%
pest or weed control at 20 g/ha (AVEFA [2]): 80%
pest or weed control at 20 g/ha (ECHCG [3]): 100%
pest or weed control at 80 g/ha (ABUTH [4]): 100%
pest or weed control at 20 g/ha (ABUTH [5]): 80%
pest or weed control at 80 g/ha (AVEFA [6]): 100%
pest or weed control at 20 g/ha (AMARE [7]): 100%
pest or weed control at 20 g/ha (VIOTR [8]; dosage 20 g/ha): 100%
pest or weed control at 80 g/ha (VIOTR [8]; dosage 80 g/ha): 100%
pest or weed control at 80 g/ha (ECHCG [9]): 100%
pest or weed control at 5 g/ha (ALOMY [10]; dosage 5 g/ha): 90%
pest or weed control at 20 g/ha (ALOMY [10]; dosage 20 g/ha): 90%
pest or weed control at 80 g/ha (VERPE): 90%
pest or weed control at 20 g/ha (VIOTR [11]): 80%
pest or weed control at 80 g/ha (MATIN): 100%
pest or weed control at 20 g/ha (SETVI [12]): 100%
pest or weed control at 20 g/ha (AMARE [13]; 20 g/ha): 100%
pest or weed control at 80 g/ha (AMARE [13]; 80 g/ha): 100%
pest or weed control at 80 g/ha (ALOMY [14]; 80 g/ha, scored visually after 3 weeks vs untreated controls (100% = plants have died, 0% = like control plants)): 100%
pest or weed control at 20 g/ha (ALOMY [14]; 20 g/ha, scored visually after 3 weeks, 100% = plants have died, 0% = like control plants): 100%
